From patent US20090156563A1, “Glucan Compositions” (priority 2005, published 2009)

System: skin of the forearm
Experiment: Determination of skin roughness (DIN 4768ff, profilometry of silicone skin impressions)
Type: in vivo, human
Settings: 10% glyceryl stearate, 8 hours after application
Description: An aqueous lotion for the treatment of skin roughness is formulated from an aqueous emulsion containing 10% by weight of glyceryl stearate and either 0.005% or 0.05% or 0.5% by weight of β-1,3-scleroglucan (using formulations A-D described further above).
The determination of skin roughness is conducted according to German standard DIN 4768ff. The roughness of the skin is determined by taking silicone-based skin impressions and then measuring the surface profile of the impressions, using computer-aided profilometry. The skin roughness is calculated from the multiple measuring points (100 points per square millimeter). The number of volunteers used is 10. The determination of skin roughness is conducted both prior to application of the test lotion and 8 hours after application of the test lotion. The skin of the forearm is used as the skin test area. For the purpose of comparison, a control experiment is conducted using a placebo containing none of the scleroglucan formulations.

With β-1,3-scleroglucan as the substance, how does the “reduction of skin roughness (relative to untreated skin)” value (lotion with 0.005% by weight β-1,3-scleroglucan (formulations A-D)) read?
Its value is “good reduction”.

And the “reduction of skin roughness (relative to untreated skin)” value (lotion with 0.05% by weight β-1,3-scleroglucan (formulations A-D))?
Its value is “good reduction”.
